In US8536113B2, “EGFR binding peptides and uses thereof” (Janssen Biotech, Inc., priority 2006, dated 2013):

How the values were obtained:
A431 cells [1] = test: Internalization of biotinylated P190 by FACS and confocal microscopy; format: cell-based, human; details: 37° C.
Method: The complexes were added to A431 cells that had been pre-incubated in PBS with or without EGF for 15 minutes and then incubated for an additional hour. Cells were washed to remove unbound complexes and split into two separate tubes, one of which stayed at 4° C. and one of which was incubated for 2 hours at 37° C. to promote internalization. Again, cells were washed and further split into 2 groups with one tube from each temperature undergoing acid wash treatment to remove surface-bound biotinylated peptide. Cells were washed again in FACS staining buffer and peptide binding and internalization were acquired by FACSCalibur (BD, Franklin Lakes, N.J.) and analyzed by Cell Quest software. The remaining cells from both 4° C. and 37° C. without acid wash after FACS analysis were centrifuged and resuspended with 50 μL mounting medium containing DAPI (Vector Laboratory Inc. Burlingame, Calif.). Ten μL of cells in mounting medium were transferred to a glass slide, covered with thin glass slips and examined by confocal microscopy.

A431 cells [2] = test: Flow cytometry of phage binding to tumor cells; format: cell-based, human
Method: (§1) Flow cytometry. To evaluate whether the selected peptides from phage display can bind to tumor cells that overexpress EGFR, A431 cells (epidermoid cancer) or an EGFR negative tumor cells, MCF-7 (breast carcinoma) were tested in a flow cytometry assay using fluorescence detection (FACS). For P145, PP146 and their control phage, 2.5×10^5 A431 cells were resuspended in 25 μl of flow staining buffer (dPBS with 1% BSA, 0.09% sodium azide) and incubated with 25 μl of phage clones for 1 hour at 4° C. […] Cells were washed two times with flow staining buffer and then incubated with 0.5 μg of mouse anti M13/fd/F1 filamentous phages monoclonal antibody conjugated to FITC (Fitzgerald Industries International, Inc. Concord, Mass.) for 45 minutes at 4° C. Cells were washed two times with flow staining buffer and acquired by FACSCalibur (BD, Franklin Lakes, N.J.) to detect bound phages on tumor cell surface. Results.
(§2) A431 cells (epidermoid cancer) which overexpress EGFR and EGFR-negative tumor cells, MCF-7 (breast carcinoma) were tested in a flow cytometry assay. Tumor cells (A431 and MCF-7) were harvested with 0.25% tyrpsin-EDTA and washed twice with FACS staining buffer (dPBS with 1% BSA, 0.09% sodium azide). […] After binding at 4° C., cells were washed twice with FACS staining buffer to remove unbound phage and then incubated with 0.5 μg of mouse anti-M13 monoclonal antibody conjugated to FITC (Fitzgerald Industries International, Inc. Concord, Mass.) for 1 hour at 4° C. Mouse anti-M13-FITC incubated with cells without phage was used as background binding. Cells were washed twice with FACS staining buffer to remove unbound detection antibody.

MCF-7 = test: Flow cytometry of phage binding to EGFR negative tumor cells; format: cell-based, human; details: EGFR positive versus EGFR negative cells
Method: as §1, §2

[3] = target: T1, complex between EGF and sEGFR-MMB (Homo sapiens, UniProt P00533); test: Phage ELISA binding studies on P190, receptor with added EGF; details: Table 10; listed as pIX-190
T1 construct: made in house
Method: The plates were held overnight at room temperature, washed twice with TBST (0.5M Tris Base, 9% NaCl, 0.05% tween, pH 7.6), and loaded with 200 μL per well of Starting Block (Pierce). […] The plates were held at room temperature for 1.5 hours for blocking. Plates were then washed twice with TBST and phage were added. The phage solutions were crude phage supernatant from overnight cultures diluted four-fold with Starting Block. After a one-hour incubation, the plates were washed thrice with TBST and 100 μL of a 1:5000 dilution of phage binding antibody conjugate (α-M13-HRP) was added to the wells. EGF was added if applicable. After a one-hour incubation the plates were washed five times with TBST, 100 μL of POD (BM Chemiluminescence ELISA substrate; Roche Applied Science) was added, and chemiluminescence recorded.

Sequence: DPCTWEVWGRECLQ [P190]
- internalization into EGFR^+ cells (A431 cells [1]): is internalized
- phage binding to A431 cells in the presence of EGF (A431 cells [2]): increased
- phage binding to A431 cells in the presence of EGF and cetuximab (A431 cells [2]): decreases
- binding to A431 compared with MCF-7 (MCF-7): bound more effectively to A431 cells
- binding to A431 compared with MCF-7 (MCF-7; listed as pIII-190): bind to A431 but not to MCF-7
- binding to A431 compared with MCF-7 (MCF-7; listed as pIX-190): bind to A431 but not to MCF-7
- Binds EGF + SEGFR-MMB Complex [3]: increased in the presence of EGF or TGF-a
